Measurements: patent publication US20230357219A1, “PREPARATION OF BIARYL RING-LINKED AROMATIC HETEROCYCLIC DERIVATIVE AS IMMUNOMODULATOR AND USE THEREOF” (SHANGHAI LONGWOOD BIOPHARMACEUTICALS CO., LTD., priority 2020, published 2023)

Target: PD-1/PD-L1 (Homo sapiens (Human), UniProt Q9NZQ7)
Test: PD-1/PD-L1 Homogeneous Time-Resolved Fluorescence (HTRF) Binding Assay
Settings: ~3 nM of PD1, 10 nM of PD-L1; 25° C., PBS buffer (pH 7.4)
Procedure: Assays were performed in standard black 384-well polystyrene plates and a final volume was 20 µL. The inhibitor was first serially diluted with DMSO and added to the wells of the plate, then other reaction components were added. The final concentration of DMSO in the assay was 1%. Assays were performed at 25° C. in PBS buffer (pH 7.4) containing 0.05% Tween-20 and 0.1% BSA. Recombinant human PD-L1 protein (19-238) with a His-tagged at the C-terminus was purchased from AcroBiosystems (PD1-H5229). Recombinant human PD-1 protein (25-167) with an Fc tag at the C-terminus was also purchased from AcroBiosystems (PD1-H5257). The PD-L1 and PD-1 proteins were diluted in assay buffer and then 0.1 µl of the solution was extracted and added to the wells of the plate. Plates were centrifuged and proteins and inhibitors were preincubated for 40 minutes. After incubation, 0.1 µl of HTRF detection buffer containing europium […] labeled anti-human IgG (PerkinElmer-AD0212), Fc-specific and anti-His SureLight®-Allophycocyanin (APC, PerkinElmer-AD0059H) conjugated antibodies was added. After centrifugation, the plates were incubated at 25° C. for 60 minutes. Data was read in a PHERAstar FS plate reader (665 nm/620 nm ratio). Final concentrations in the assay were ~3 nM of PD1, 10 nM of PD-L1, 1 nM of europium anti-human IgG, and 20 nM of anti-His-allophycocyanin. Activity data were fitted using GraphPad Prism 5.0 software to derive IC50 values for inhibitors. The IC50 values of the compounds exemplified in the examples are expressed in the following manner: IC50: + = ≤100 nM; ++ =100 nM-1000 nM; +++ = >1000 nM. The data of the example compounds obtained by PD-1/PD-L1 homogeneous time-resolved fluorescence (HTRF) binding assay described in Example A were provided in Table 1.

Chain of PD-1/PD-L1 (Q9NZQ7 19-238): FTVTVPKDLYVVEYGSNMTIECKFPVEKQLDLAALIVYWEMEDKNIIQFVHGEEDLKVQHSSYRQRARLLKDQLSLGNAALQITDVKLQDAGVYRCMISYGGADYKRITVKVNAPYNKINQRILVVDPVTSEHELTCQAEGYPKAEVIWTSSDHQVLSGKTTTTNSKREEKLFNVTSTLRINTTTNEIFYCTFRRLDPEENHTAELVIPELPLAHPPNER

Row | IC50 | SMILES
1 | ≤ 100 nM | COc1nc(O[C@@H]2CCc3c(-c4cccc(Nc5nccc6cc(CN7CC[C@@H](C(=O)O)C7)cnc56)c4Cl)cccc32)cnc1CN1CC[C@@H](O)C1 [Compound 12]
2 | ≤ 100 nM | COc1nc(O[C@@H]2CCc3c(-c4cccc(Nc5nccc6cc(CN7CC[C@@H](C(=O)O)C7)cnc56)c4C)cccc32)cnc1CN1CC[C@@H](O)C1 [Compound 4]
3 | ≤ 100 nM | COc1nc(O[C@@H]2CCc3c(-c4cccc(Nc5nccc6cc(CN7CC[C@@H](O)C7)cnc56)c4C)cccc32)cnc1CN1CC[C@@H](C(=O)O)C1 [Compound 5]
4 | ≤ 100 nM | COc1nc(O[C@@H]2CCc3c(-c4cccc(Nc5nccc6cc(CN7CC[C@H](O)C7)cnc56)c4Cl)cccc32)cnc1CN1CC[C@@H](C(=O)O)C1 [Compound 13]

Further lines, the compound ahead of its results:

Row | SMILES | IC50
5 | COc1nc(O[C@@H]2CCc3c(-c4cccc(-c5nc6cc(CN7CC[C@@H](C(=O)O)C7)cc(C#N)c6o5)c4C)cccc32)cnc1CN1CC[C@@H](O)C1 [Compound 8] | ≤ 100 nM
6 | COc1nc(O[C@@H]2CCc3c(-c4cccc(-c5nc6cc(CN7CC[C@@H](C(=O)O)C7)cc(C#N)c6o5)c4C)cccc32)ccc1CN1CC[C@@H](O)C1 [Compound 6] | ≤ 100 nM
7 | COc1nc(O[C@@H]2CCc3c(-c4cccc(Nc5nccc6cc(CN7CC[C@@H](C(=O)O)C7)cnc56)c4C)cccc32)ccc1CN1CC[C@@H](O)C1 [Compound 7] | ≤ 100 nM
8 | COc1nc(O[C@@H]2CCc3c(-c4cccc(Nc5nccc6cc(CN7CC[C@@H](C(=O)O)C7)cnc56)c4Cl)cccc32)ccc1CN1CC[C@@H](O)C1 [Compound 10] | ≤ 100 nM
9 | COc1nc(O[C@@H]2CCc3c(-c4cccc(Nc5nccc6cc(CN7CC[C@@H](O)C7)cnc56)c4C)cccc32)ccc1CN1CC[C@@H](C(=O)O)C1 [Compound 3] | ≤ 100 nM
10 | COc1nc(O[C@@H]2CCc3c(-c4cccc(-c5nc6cc(CN7CC[C@@H](O)C7)cc(C#N)c6o5)c4C)cccc32)cnc1CN1CC[C@@H](C(=O)O)C1 [Compound 9] | ≤ 100 nM
